Laboratory results from PMC11595612, “Phytochemical Investigation and Biological Activities of Desmodium heterocarpon Extract as Anti-Tyrosinase: Isolation of Natural Compounds, In Vitro and In Silico Study” (Life, 2024).
In brackets after ≈: the same amount, converted by molar mass. Like-named read-outs stand apart in the source and are kept apart here.

Experiments:
[1] = test system: Candida albicans (TISTR 5779); test: MIC/MFC by micro-dilution method; conditions: for MFC / MIC: Candida albicans, TISTR5779
[2] = target: tyrosinase; conditions: previous study, read-out: IC50, anti-tyrosinase activity, cited from earlier work
[3] = test system: Propionibacterium acnes (DMST 14916); test: MIC/MBC by micro-dilution method; conditions: Cutibacterium acnes
[4] = test system: Microsporum gypseum; test: MIC/MFC by micro-dilution method; conditions: for MFC / MIC: Nannizzia gypsea
[5] = test system: Trichophyton mentagrophytes; test: MIC/MFC by micro-dilution method; conditions: for MFC / MIC: Trichophyton mentagrophytes
[6] = test system: Staphylococcus epidermidis (TISTR 517); test: MIC/MBC by micro-dilution method; conditions: TISTR517
[7] = test system: Trichophyton rubrum; test: MIC/MFC by micro-dilution method; conditions: for MFC / MIC: Trichophyton rubrum
[8] = test system: Escherichia coli ATCC35218; test: MIC/MBC by micro-dilution method
[9] = test system: Pseudomonas aeruginosa ATCC10145; test: MIC/MBC by micro-dilution method
[10] = test system: Staphylococcus aureus (ATTC 25923); test: MIC/MBC by micro-dilution method
[11] = test system: tyrosinase; conditions: cited from earlier work
[12] = test system: A. fumigatus, A. flavus, A. niger, and tested Chrysosporium species; parameters: method as in earlier work; conditions: at 30 mg/mL; isolated from fruit extract of Flacourtia inermis Roxb; cited from earlier work
[13] = test system: P. aeruginosa, Klebsiella pneumoniae, E. coli, Salmonella typhimurium, and S. aureus; conditions: at a concentration of 315 ± 0.04 µg/mL; cited from earlier work
[14] = test system: Rhizopus stolonifer and Botrytis; parameters: method as in doi:10.1016/S0925-5214(96)00031-2; conditions: at a dosage of 5 mM; cited from earlier work
[15] = test system: B. aureus, L. monocytogenes, and E. coli; parameters: method as in doi:10.17221/132/2010-CJFS; conditions: cited from earlier work
[16] = test system: Candida albicans, Microsporum gypseum, Trichophyton rubrum, and T. mentagrophytes; test: MIC/MFC by micro-dilution, summary over yeast and filamentous fungi (abstract); format: cell-based; conditions: C. albicans, M. gypseum
[17] = test system: MRSA, S. epidermidis, Propionibacterium acnes, Escherichia coli, and Pseudomonas aeruginosa; test: MIC/MBC by micro-dilution, summary over bacteria (abstract)

MIC [3] [µg/mL]	MIC [4] [µg/mL]	MIC [5] [µg/mL]	MIC [1] [µg/mL]	MIC [6] [µg/mL]	MIC [7] [µg/mL]	MIC [8] [µg/mL]	MIC [9] [µg/mL]	MIC ([10]; Staphylococcus aureus) [µg/mL]	SMILES	MBC [3] [µg/mL]	MFC [4] [µg/mL]	MFC [5] [µg/mL]	MFC [1] [µg/mL]	MBC [6] [µg/mL]	MFC [7] [µg/mL]	MBC [8] [µg/mL]	MBC [9] [µg/mL]	MBC ([10]; Staphylococcus aureus) [µg/mL]	further results
> 100	> 100	> 100	> 100	> 100	> 100	> 100	> 100	> 100	O=c1c(-c2ccc(O)cc2)coc2cc(O)cc(O)c12 [compound 1, genistein]	> 100	> 100	> 100	> 100	> 100	> 100	> 100	> 100	> 100	IC50 ([2]; ref 40): 363 µM; IC50 ([2]; ref 41): 822 µM
15 (≈ 97.3 µM)	10 (≈ 64.9 µM)	10 (≈ 64.9 µM)	10 (≈ 64.9 µM)	15 (≈ 97.3 µM)	10 (≈ 64.9 µM)	15 (≈ 97.3 µM)	15 (≈ 97.3 µM)	15 (≈ 97.3 µM)	O=C(O)c1cccc(O)c1O [compound 5, 2,3-dihydroxybenzoic acid]	20 (≈ 130 µM)	10 (≈ 64.9 µM)	10 (≈ 64.9 µM)	15 (≈ 97.3 µM)	15 (≈ 97.3 µM)	10 (≈ 64.9 µM)	15 (≈ 97.3 µM)	20 (≈ 130 µM)	15 (≈ 97.3 µM)	antifungal action [12]: preventing the growth; growth of bacteria [13]: inhibited the growth
30 (≈ 195 µM)	15 (≈ 97.3 µM)	15 (≈ 97.3 µM)	15 (≈ 97.3 µM)	15 (≈ 97.3 µM)	15 (≈ 97.3 µM)	20 (≈ 130 µM)	20 (≈ 130 µM)	5 (≈ 32.4 µM)	O=C(O)c1cc(O)ccc1O [compound 6, 2,5-dihydroxybenzoic acid]	40 (≈ 260 µM)	15 (≈ 97.3 µM)	15 (≈ 97.3 µM)	15 (≈ 97.3 µM)	15 (≈ 97.3 µM)	15 (≈ 97.3 µM)	35 (≈ 227 µM)	35 (≈ 227 µM)	5 (≈ 32.4 µM)	spore germination [14]: inhibited; MIC [15]: 2500 µM (≈ 385 µg/mL); MFC [16]: 15 µg/mL (≈ 97.3 µM); MIC [16]: 15 µg/mL (≈ 97.3 µM); MBC [17]: 15 to 40 µg/mL (≈ 97.3 to 260 µM); MIC [17]: 15 to 30 µg/mL (≈ 97.3 to 195 µM); MBC ([10]; S. aureus): 5 µg/mL (≈ 32.4 µM); MIC ([10]; S. aureus): 5 µg/mL (≈ 32.4 µM)

Further lines, the compound ahead of its results:

SMILES	MIC [3] [µg/mL]	MIC [4] [µg/mL]	MIC [5] [µg/mL]	MIC [1] [µg/mL]	MIC [6] [µg/mL]	MIC [7] [µg/mL]	MIC [8] [µg/mL]	MIC [9] [µg/mL]	MIC ([10]; Staphylococcus aureus) [µg/mL]	MBC [3] [µg/mL]	MFC [4] [µg/mL]	MFC [5] [µg/mL]	MFC [1] [µg/mL]	MBC [6] [µg/mL]	MFC [7] [µg/mL]	MBC [8] [µg/mL]	MBC [9] [µg/mL]	MBC ([10]; Staphylococcus aureus) [µg/mL]	further results
C[C@@H]1[C@H](O)[C@@H](C)/C=C/C=C/C=C/C=C/C=C/C=C/C=C/[C@H](O[C@@H]2O[C@H](C)[C@@H](O)[C@H](N)[C@@H]2O)C[C@@H]2O[C@](O)(C[C@@H](O)C[C@@H](O)[C@H](O)CC[C@@H](O)C[C@@H](O)CC(=O)O[C@H]1C)C[C@H](O)[C@H]2C(=O)O [amphotericin B, reference compound]																			Antibiotic * (positive control value; MIC/MFC not specified) ([1]; C. albicans): 0.5
CCCCCCCCCCCCCCCC(=O)O [compound 2, hexadecanoic acid]	> 100	> 100	> 100	> 100	> 100	> 100	> 100	> 100	> 100	> 100	> 100	> 100	> 100	> 100	> 100	> 100	> 100	> 100	
O=C(O)c1ccccc1O [compound 3, salicylic acid]																			type of inhibition (Lineweaver–Burk plots) [11]: non-competitive inhibitor
CC[C@H](CC[C@@H](C)[C@H]1CC[C@H]2[C@@H]3CC=C4C[C@@H](O[C@@H]5O[C@H](CO)[C@@H](O)[C@H](O)[C@H]5O)CC[C@]4(C)[C@H]3CC[C@]12C)C(C)C [compound 4, β-sitosterol-D-glucoside]	> 100	> 100	> 100	> 100	> 100	> 100	> 100	> 100	> 100	> 100	> 100	> 100	> 100	> 100	> 100	> 100	> 100	> 100	
CC(=O)N1CCN(c2ccc(OCC3COC(Cn4ccnc4)(c4ccc(Cl)cc4Cl)O3)cc2)CC1 (centres unmarked) [ketoconazole, reference compound]																			Antibiotic * (positive control value; MIC/MFC not specified) ([4]; M. gypseum): 0.25; Antibiotic * (positive control value; MIC/MFC not specified) ([5]; T. mentagrophytes): 0.25; Antibiotic * (positive control value; MIC/MFC not specified) ([7]; T. rubrum): 0.25
